In patent US20180282271A1, “ANTIBIOTIC AMINO ACID MIMETICS” (priority 2017, published 2018):
In brackets after ≈: the same amount, converted by molar mass. Several values for one entry are separate records, joined by “and”; a condition that tells them apart may be missing. Equal entries are not always repeated. Where a SMILES comes first, the peptide text is derived from it. [ ]: non-standard residue; d: D form. The star is where a group is joined. ξ: configuration not given here. ξhCys = NC(CCS)C(=O)O; ξhSer = NC(CCO)C(=O)O; ξC = NC(CS)C(=O)O; tBu = CC(C)(C)*; NHOH = ON*

Legend:
E. coli = experiment: MIC, conventional methods; format: cell-based, Escherichia coli
Protocol: (§1) The following L,L-dipeptides were tested for their minimum inhibitory concentrations against three different bacterial strains as set forth in the table below. The testing protocol followed conventional methods and identified a MIC value reported as micrograms per milliliter (μg/mL). Each of the dipeptides had the following structure: Based on the above results, the sidechain of the methionine mimetic was modified to evaluate the effect of such substitution on MIC values. Again, this test used conventional assays to measure the MIC values of each of these modified mimetics.

P. aer. = experiment: MIC, conventional methods; format: cell-based, Pseudomonas aeruginosa
Protocol: as §1

S. aureus = experiment: MIC, conventional methods; format: cell-based, Staphylococcus aureus
Protocol: as §1

[1] = system: Escherichia coli UNT116-1 (ATCC25922); experiment: Murine superficial skin infection model; format: in vivo, mice; settings: for Mean log10 CFU/wound: 50 uL topical +4, 8, 12, 16 & 20 hr, sampled +24 hr
Protocol: Evaluation of high dose of novel test article(s) for the treatment of a superficial skin infection in mice caused by Escherichia coli. […] Strain has been previously used separately for this infection at […]. Female 5-6 week old CD-1 (18-22 gm) were used in the studies. The mice were housed in groups of 5 with free access to food and water during the study. Cytoxan 150 mg/kg@15 mg/mL on Day-4 ONLY. The mice were anesthetized and kept sedated during the initial procedure under isoflurane vapors (3%). The fur on the back dorsal surface was shaved using electric clippers followed by 'wet shaving' with a disposable razor. The skin was then sterilized with a betadine wash followed by alcohol swab. An area of the shaved skin was then abraded utilizing a sterile gauze pad. Following this procedure, the skin became visibly damaged and characterized by reddening and glistening but no bleeding. […] The skin was then wiped with an alcohol swab and allowed to dry completely. After stripping of the skin, a bacterial infection was initiated by placing on the skin a 5-10 μL droplet containing approximately […] of both bacterium concentrated from overnight cultures in stationary phase. [table] Sponsors test articles were prepared in 0.05% methylcellulose. Fresh formulations were prepared for each day of dosing. The first application of each compound (N=10 mice/group) to the stripped skin of the mice was at 4 hr post-infection then continued q4 hr. For each treatment 50 uL of formulation was applied. Infection control groups' untreated mice were included with each experiment. The test was terminated 4 h after the last topical treatment. Immediately after the mice were euthanized (photographs of the wounds were taken for each group), the wounds, approximately 2 cm2, were excised, rinsed in sterile PBS and homogenized together with 2 ml of phosphate-buffered saline in a Polytron tissue homogenizer. The homogenates were washed once in phosphate-buffered saline to decrease the concentration of ointment. Suitable dilutions of the homogenates were plated on appropriate agar (with the addition of charcoal to avoid the effects of antibiotic carryover) for the organism to determine the number of living bacteria (CFU).

[2] = Table 2, side chain Q of the methionine mimetic varied
[3] = Table 1, L,L-dipeptides varied in T
[4] = Study #2, test articles 700 mg/mL, gentamicin 0.30%
[5] = Study #2, test articles 700 mg/mL, gentamicin 0.30%, topical, +24 hr

| Molecule | MIC E. coli (E. coli; [2]) [mg/L] | MIC P. aer. (P. aer.; [2]) [mg/L] | MIC S. aur. (S. aureus; [2]) [mg/L] | further results |
| --- | --- | --- | --- | --- |
| COCCC(NC(=O)CN)C(=O)NO (stereo not drawn) [O] (H-Gly-[ξhSer](Me)-{NHOH}) | 374 (≈ 1820 µM) | 624 (≈ 3040 µM) | 112 (≈ 546 µM) |  |
| CSCC[C@H](NC(=O)[C@H](C)N)C(=O)NO [B] (H-Ala-Met-{NHOH}) |  |  |  | MIC E. coli (E. coli; [3]): 158 mg/L (≈ 671 µM); MIC P. aer. (P. aer.; [3]): 1040 mg/L (≈ 4420 µM); MIC S. aur. (S. aureus; [3]): 131 mg/L (≈ 557 µM) |
| CCSCC(NC(=O)CN)C(=O)NO (stereo not drawn) [M] (H-Gly-[ξC](Et)-{NHOH}) | 159 (≈ 719 µM) | 832 (≈ 3760 µM) | 104 (≈ 470 µM) |  |
| C[S+]([O-])CCC(NC(=O)CN)C(=O)NO (stereo not drawn) [G] | 123 (≈ 518 µM) | 416 (≈ 1750 µM) | 51 (≈ 215 µM) |  |
| CCSCCC(NC(=O)CN)C(=O)NO (stereo not drawn) [J] (H-Gly-[ξhCys](Et)-{NHOH}) | 129 (≈ 548 µM) | 554 (≈ 2350 µM) | 60 (≈ 255 µM) |  |
| Gentamicin |  |  |  | Mean log10 CFU/wound ([1]; Study #1, test articles 500 mg/mL, gentamicin 0.30%, wounds wrongly sprayed with 70% EtOH for test articles): 2.35 log10 CFU/wound; Mean log10 Change vs. +24 hr ([1]; Study #1, test articles 500 mg/mL, gentamicin 0.30%, topical, +24 hr): −5.37 log10; reduction of bacterial skin burden compared to the 24 hour untreated control [1, 4]: 5.98 log10 CFU/wound; Mean log10 CFU/wound [1, 4]: 2.46 log10 CFU/wound; Log 10 CFU/wound, individual animal [1, 5]: 2.83 Log 10 CFU/wound and 2.35 Log 10 CFU/wound (8×) and 2.95 Log 10 CFU/wound; Mean log10 Change vs. +4 hr [1, 5]: −1.36 log10; Mean log10 Change vs. +24 hr [1, 5]: −5.98 log10; 95.00% CI of diff., Tukey's multiple comparisons test ([1]; Study #2, vs. +4 hr Infection Control): −2.209 to −0.5115; 95.00% CI of diff., Tukey's multiple comparisons test ([1]; Study #2, vs. +24 hr Infection control): −6.678 to −5.292 |
| CC(C)(C)SCC(NC(=O)CN)C(=O)NO (stereo not drawn) [N] (H-Gly-[ξC](tBu)-{NHOH}) | 195 (≈ 782 µM) | 693 (≈ 2780 µM) | 77 (≈ 309 µM) |  |
| CSCC[C@H](NC(=O)[C@@H](N)CCCCN)C(=O)NO [Compound E] |  |  |  | MIC E. coli (E. coli; [3]): 312 mg/L (≈ 1070 µM); MIC P. aer. (P. aer.; [3]): >1660 mg/L; MIC S. aur. (S. aureus; [3]): 104 mg/L (≈ 356 µM) |
| CCCCSCCC(NC(=O)CN)C(=O)NO (stereo not drawn) [K] | 150 (≈ 570 µM) | 138 (≈ 524 µM) | 60 (≈ 228 µM) |  |
